In US20110155157A1, “CIGARETTE FILTER CONTAINING ROSEMARY EXTRACT AND A METHOD OF REDUCING DNA DAMAGE CAUSED BY HARMFUL AGENTS IN CIGARETTE SMOKE BY USE OF SAID FILTER” (priority 2006, published 2011):

System: calf thymus DNA
Assay: BPDE-dG adduct formation by cigarette smoke solution in a cell-free system with DNA and (+)-BP-7,8-diol

Catalase
% BPDE-dG relative to standard CS (CSS diluted 1:19 with PBS pH 7.4, (+) BaP-7,8-diol, room temperature 2 h): 12% | effect on the (−)-anti-BPDE-dG produced (in words): inhibited the formation of the adduct
